The text below walks through data of patent publication US8163526B2, “Ethanol production” (The University of Durham, priority 2006, dated 2012).

One test concerns Z. mobilis cells. The test is described as follows: chromate assay for ethanol production by untreated and AI-2-treated Z. mobilis cells. Type of test: cell-based, Zymomonas mobilis. The source says:
The two overproduced cytosolic proteins were identified as enolase, ZMO1608, and pyruvate decarboxylase, ZMO1360 as illustrated in FIG. 2. These are sequential enzymes in the E-D pathway that leads to ethanol production. […] A chromate assay (e.g. 3C2H5OH+4Cr03−>2Cr2O3+3H2O) was used to asses ethanol production, monitoring colour change (e.g. at 600 nm) to determine the ethanol produced.

In a further test the test system is Z. mobilis. The test is described as follows: overproduction of proteins in Z. mobilis in response to autoinducer (identified by mass spectrometry). Type of test: cell-based, Zymomonas mobilis. As to conditions: AI-2 produced in vitro with purified enzymes; 2 cytoplasmic and 3 secreted proteins. The source says: […] Nature 437, […]) to avoid the toxic effects of bacteriocin production, it stimulated Z. mobilis to overproduce at least 5 proteins, 2 which were retained in the cytoplasm and 3 that were secreted. These proteins were not produced when Z. mobilis was co-cultured with the luxS-deletion strain KX1128, which lacks the LuxS enzyme that is responsible for the synthesis of 4,5-dihydroxy-2,3-pentanedione (DPD) from S-ribosylhomocysteine, which spontaneously cyclizes to form the autoinducer molecule Autoinducer-2 (AI-2).
The proteins overproduced in response to AI-2 were identified by mass spectrometry sequencing of tryptic-fragments. The first of the secreted proteins, ZMO1147, was identified as a homologue of the E. coli periplasmic chaperone Skp/HIpA (Walton, T A and Sousa M C (2004) Crystal structure of Skp, a prefoldin-like chaperone that protects soluble and membrane proteins from aggregation. Mol Cell. 15, 367-74). […] In E.coli the yaeT and hlpA genes are clustered. In Z. mobilis, ZMO1147 is clearly transcriptionally linked to ZMO1148, a homologue of yaeT, being directly downstream of ZMO1148, so that they share the same promoter. Consequently, both ZMO1147 and ZMO1148 must be induced by AI-2. […] Clearly, ZMO1147 must have a role above and beyond acting as a periplasmic chaperone. […]

In the case of Autoinducer-2 [AI-2], in the test on Z. mobilis cells (AI-2-treated Z. mobilis, untreated 9%, FIG. 3), the medium ethanol concentration is 14.2%. The “ethanol production (in words)” value with Z. mobilis cells (AI-2-treated vs untreated Z. mobilis cells) was “significant increase in ethanol production”. Besides, the “increase in ethanol production” value in the test with Z. mobilis cells (AI-2-treated vs untreated Z. mobilis, average of two experiments, chromate assay, colour change at 600 nm) turned out to be 54%. Moreover, in the test with Z. mobilis, the “protein overproduction in Z. mobilis (in words)” value was “over production of the same five proteins”.
